{"source": "patent US4107298A", "about": "“Antigenically active polypeptide and a process for its preparation” (AB Bonnierforetagen, priority 1976, dated 1978)", "system": "antibodies specific to TPA (prepared by using natural cancer antigen, CAPA or TPA)", "experiment": "hemagglutination inhibition test", "assay_type": "binding", "settings": "for immunological activity after coupling to inert albumin: coupled to inert bovine albumin, molar ratio about 1:1, by water soluble carbodiimide (EDC)", "source_text": "The polypeptide prepared according to the foregoing was investigated with regard to its ability to inhibit the hemagglutination reaction between tanned red sheep blood cells labelled with natural cancer antigen and antibodies prepared by using natural cancer antigen (CAPA or TPA). With regard to details concerning this technique reference is had to the above-identified Swedish patent application 73-08917-9 and U.S. Pat. No. 3,960,827. […] Said Unit for specific activity is defined as 1/6 of the quantity active polypeptide required to label 10^9 sheep blood cells so as to be fully agglutinated by a minimum number or amount of antibodies (maximum dilution of antibodies).\nIn Example 1 as described above the antigenic activity of the synthesized polypeptide was determined in the following manner.\nFor quantitative determination of the amount of polypeptide 7 mgs of the peptide are dissolved in 1.4 mls of buffer grade serum, i.e. a physiological saline solution containing 2% of inert human serum and buffered to a pH of about 7.5 with a phosphate buffer. Under serial dilution a series of samples of said solution having a decreasing polypeptide concentration is prepared and to each of said samples there is added a pre-determined amount of anti-serum containing antibodies specific to TPA. To each of the resulting samples there is then added, after incubation, a predetermined amount of the polypeptide carried on a particulate carrier, hemagglutination taking place to an extent corresponding to the amount of available antibodies. In parallel there is prepared a corresponding series of control samples containing known decreasing amounts of TPA. The diameters of the hemagglutination depositions of the control samples are then measured in their respective cavities on a serial dilution test plate, and the values of the diameters obtained are plotted against the TPA concentrations, an S-shaped curve being obtained, the intermediate part of which including an inflexion point as a steep inclination. The corresponding curve of the diameter of the depositions from the hemagglutination as a function of the TPA-concentrations is shown in the diagram of the appended drawing, as curve B.\nIn the same diagram the corresponding curve for the synthesized polypeptide is shown as A, and with knowledge of the specific activity of the TPA the specific activity of the synthesized polypeptide is found to be 0.024 Units per milligram of peptide.", "note": "No end group written: not given here."}
{"sequence": "NDILAQYLDLVRALEAANG [Example 5, Asn Asp Ile Leu Ala Gln Tyr Leu Asp Leu Val Arg Ala Leu Glu Ala Ala Asn Gly]", "values": [{"measurement": "immunological activity compared with the polypeptide of Example 1", "result": "about equally immunologically active"}]}
{"sequence": "TDLDDRLAKYLDKVRALEAADGELEV [Example 2]", "values": [{"measurement": "immunological activity compared with the polypeptide of Example 1", "result": "about equally immunologically active"}]}
{"sequence": "ALLNDELAQYLDLVRALEAANGQLEV [Example 1]", "values": [{"measurement": "activity lowered", "setting": "basic environment only, pH 13, same period of time, no cyclohexanedione", "result": "about 20%"}, {"measurement": "loss of activity", "setting": "centrally positioned arginine A0 blocked with cyclohexanedione at pH 13", "result": 99.5, "unit": "%"}, {"measurement": "specific activity", "setting": "inhibition of hemagglutination between tanned red sheep blood cells labelled with natural cancer antigen and anti-TPA antibodies, compared with the TPA control curve", "result": 0.024, "unit": "U/mg"}, {"measurement": "activity disappears", "setting": "treated with iodine at pH 9.5, 100 times excess", "result": "40-50%"}, {"measurement": "activity lost", "setting": "treated with iodine at pH 9.5, 1000 times excess", "result": "about 75%"}, {"measurement": "activity lost", "setting": "treated with iodine at pH 9.5, excess of about 10000 times in relation to tyrosine content", "result": "about 85%"}, {"measurement": "activity of the polypeptide", "setting": "treated with iodine at pH 9.5, excess of only about 10 times", "result": "not effected"}]}
{"sequence": "DDRLAKYLDKVRALEAADG [Example 6, Asp Asp Arg Leu Ala Lys Tyr Leu Asp Lys Val Arg Ala Leu Glu Ala Ala Asp Gly]", "values": [{"measurement": "immunological activity compared with the polypeptide of Example 1", "result": "about equally immunologically active"}]}
{"sequence": "LNDELAQYLDLVRALEAANGRLEV [Example 4]", "values": [{"measurement": "immunological activity compared with the polypeptide of Example 1", "result": "about equally immunologically active"}, {"measurement": "immunological activity after coupling to inert albumin", "result": "maintained"}]}
{"sequence": "AQYLDLVRALEAANGELEV [Example 3, Ala Gln Tyr Leu Asp Leu Val Arg Ala Leu Glu Ala Ala Asn Gly Glu Leu Glu Val]", "values": [{"measurement": "immunological activity compared with the polypeptide of Example 1", "result": "about equally immunologically active"}, {"measurement": "immunological activity after coupling to inert albumin", "result": "maintained"}]}
{"sequence": "ALLNDILAQYLDLVRALEAANGRLEV [Example 25]", "values": [{"measurement": "immunological activity compared with the polypeptide of Example 1", "result": "about equally immunologically active"}]}
